Patent US9708251B2, “Unsaturated fatty alcohol alkoxylates from natural oil metathesis” (Stepan Company, priority 2012, dated 2017)
Each block holds one molecule with its values, some of them ahead of it.

Tests used:
[1] = Emulsion stability testing of nonionic emulsifiers, Hallcomid solvent series; type: physicochemical; design: key: C = creamy; CO = creamy oil; O = oil; GC = gritty cream; NS = no separation; OC = oily cream
Experimental: (§1) Nonionic samples contain a low amount of water (<1%) and are prepared as emulsifiable concentrates with three pesticides using two different solvent systems. In the aromatic solvent series, the nonionic sample replaces Toximul® 8240 (castor oil ethoxylate, 36 POE, Stepan), and in the Hallcomid™ (N,N-dimethylcaprylamide/N,N-dimethylcapramide, Stepan) solvent series, the nonionic sample replaces Ninex® MT-630F.
(§2) Hallcomid Solvent Series.
(§3) Sample preparation: The surfactants are combined and stirred until homogeneous, with the nonionic sample melted if needed prior to combination. Controls 1-3 are made by using Ninex MT-630F in the amounts indicated instead of the nonionic sample.
(§4) Emulsion Stability Testing
(§5) A Mohr pipette is used to feed pesticide/surfactant concentrates to each cylinder.

[2] = as above; type: physicochemical; design: key to 24 h separation, appearance / 1 h separation, appearance / 1 h separation, amount: C = creamy; CO = creamy oil; O = oil; GC = gritty cream; NS = no separation; OC = oily cream; key to Spon. (spontaneity): G = good; F = fair; P = poor
Experimental: as §1, §2, §3, §4, §5

[3] = Surfactant phase behavior study (cross-polarized microscopy); type: physicochemical; details: room temperature
Experimental: Phase behavior is observed using an Olympus BH-2 cross-polarized microscope at 100-400× and room temperature (20° C. to 22° C.). The inventive monounsaturated alcohol ethoxylates are compared with their saturated analogs.
Samples are prepared by diluting the most concentrated product gradually with deionized water. When the surfactant concentration approaches a phase transition, the concentration is varied at 2-4% intervals to estimate the phase boundary. The actives level reported in Table 4 for each phase boundary is within ±5% of the true boundary.
Samples are loaded between a microscope slide and cover glass and are allowed to equilibrate before observation. Microscopic texture is analyzed and used to determine the phase. For some samples, an AR 2000 rheometer (TA Instruments) is used to measure viscosity at 25° C. to further verify phase behavior.

[4] = 0.4 wt. % active, 342 ppm hard water
Experimental: Surfactant solution (100 mL) is carefully transferred to a stainless-steel mixing cup, then mixed at high speed (27K rpm) using a Hamilton Beach mixer for 10 s. The contents are quickly poured into a 100-mL graduated cylinder to the 100-mL mark, and a stopwatch is immediately started. The amount of liquid settling in the cylinder is recorded every 15 s for 4 min. Less liquid drained indicates greater foam stability.

[5] = Emulsion stability testing of nonionic emulsifiers, aromatic solvent series; type: physicochemical; design: key to 24 h separation, appearance / 1 h separation, appearance / 1 h separation, amount: C = creamy; CO = creamy oil; O = oil; GC = gritty cream; NS = no separation; OC = oily cream; key to Spon. (spontaneity): G = good; F = fair; P = poor
Experimental: as §1
Sample preparation: Ninate® 60E (calcium alkylbenzenesulfonate, Stepan) and the test sample are stirred until homogeneous. […] Controls 1-3 are made by using Toximul 8240 in the amounts indicated instead of the nonionic sample.
Formulations: • 1. Bifenthrin, 240 g/L (2.99 g), Aromatic 100 (ExxonMobil, 8.05 g), Ninate 60E (0.38 g), and nonionic sample or Toximul 8240 (0.58 g). • 2. 2,4-D ester, 480 g/L (8.90 g), Exxsol® D-110 (ExxonMobil, 2.50 g), Ninate 60E (0.36 g), and nonionic sample or Toximul 8240 (0.24 g). • 3. Tebuconazole, 360 g/L (4.45 g), N-methyl-2-pyrrolidone (6.35 g), Ninate 60E (0.48 g), nonionic sample or Toximul 8240 (0.72 g).
as §4, §5

[6] = Bifenthrin 240 g/L in Hallcomid M-8-10, 34 ppm water
[7] = 2,4-D diester 480 g/L in Hallcomid M-8-10, 34 ppm water
[8] = 2,4-D diester 480 g/L in Hallcomid M-8-10, 1000 ppm water
[9] = Bifenthrin 240 g/L in Hallcomid M-8-10, 1000 ppm water
[10] = Tebuconazole 360 g/L in Hallcomid M-8-10, 34 ppm water
[11] = Tebuconazole 360 g/L in Hallcomid M-8-10, 1000 ppm water
[12] = 2,4-D ester 480 g/L in Exxsol D-110, 34 ppm water
[13] = 2,4-D ester 480 g/L in Exxsol D-110, 1000 ppm water
[14] = Bifenthrin 240 g/L in Aromatic 100, 34 ppm water
[15] = Bifenthrin 240 g/L in Aromatic 100, 1000 ppm water
[16] = Tebuconazole 360 g/L in N-methyl-2-pyrrolidone, 34 ppm water
[17] = Tebuconazole 360 g/L in N-methyl-2-pyrrolidone, 1000 ppm water

24 h separation, amount [1, 6]: NS | 1 h separation, amount [2, 7]: 4.5 mL | 1 h separation, appearance [2, 7]: C | 24 h separation, amount [2, 7]: 8.2 mL | 24 h separation, appearance [2, 7]: C | Spon. (spontaneity) [2, 7]: P | 1 h separation, amount [2, 8]: 5 mL | 1 h separation, appearance [2, 8]: C | 24 h separation, amount [2, 8]: 7.8 mL | 24 h separation, appearance [2, 8]: C | Spon. (spontaneity) [2, 8]: F | 1 h separation, amount [2, 6]: NS | Spon. (spontaneity) [2, 6]: G | 1 h separation, amount [2, 9]: 6.4 mL | 1 h separation, appearance [2, 9]: CO | 24 h separation, amount [2, 9]: 6 mL | 24 h separation, appearance [2, 9]: O | Spon. (spontaneity) [2, 9]: F | 1 h separation, amount [2, 10]: 2.1 mL | 1 h separation, appearance [2, 10]: C | 24 h separation, amount [2, 10]: 4.9 mL | 24 h separation, appearance [2, 10]: C | Spon. (spontaneity) [2, 10]: F | 1 h separation, amount [2, 11]: 3 mL | 1 h separation, appearance [2, 11]: C | 24 h separation, amount [2, 11]: 5.5 mL | 24 h separation, appearance [2, 11]: C | Spon. (spontaneity) [2, 11]: F | Isotropic Clear phase region ([3]; in deionized water): 0-100 % Actives Level | Liquid volume at drain time 0.5 min [4]: 0.50 mL | Liquid volume at drain time 1.0 min [4]: 2.25 mL | Liquid volume at drain time 1.5 min [4]: 4.00 mL | Liquid volume at drain time 2.0 min [4]: 6.00 mL | Liquid volume at drain time 2.5 min [4]: 7.50 mL | Liquid volume at drain time 3.0 min [4]: 9.50 mL | Liquid volume at drain time 3.5 min [4]: 11.50 mL | Liquid volume at drain time 4.0 min [4]: 13.25 mL | 1 h separation, amount [5, 12]: 2.8 mL | 1 h separation, appearance [5, 12]: C | 24 h separation, amount [5, 12]: 4.6 mL | 24 h separation, appearance [5, 12]: C | Spon. (spontaneity) [5, 12]: G | 1 h separation, amount [5, 13]: 3.9 mL | 1 h separation, appearance [5, 13]: CO | 24 h separation, amount [5, 13]: 1 O, 4 CO | Spon. (spontaneity) [5, 13]: F | 1 h separation, amount [5, 14]: 3 mL | 1 h separation, appearance [5, 14]: C | 24 h separation, amount [5, 14]: 5.8 mL | 24 h separation, appearance [5, 14]: C | Spon. (spontaneity) [5, 14]: F | 1 h separation, amount [5, 15]: NS | 24 h separation, amount [5, 15]: 2.6 mL | 24 h separation, appearance [5, 15]: O | Spon. (spontaneity) [5, 15]: G | 1 h separation, amount [5, 16]: 1.5 CO, 0.5 C | 24 h separation, amount [5, 16]: 2.8 mL | 24 h separation, appearance [5, 16]: CO | Spon. (spontaneity) [5, 16]: P | 1 h separation, amount [5, 17]: 2.1 mL | 1 h separation, appearance [5, 17]: CO | 24 h separation, amount [5, 17]: 3.5 mL | 24 h separation, appearance [5, 17]: CO | Spon. (spontaneity) [5, 17]: P
SMILES: C=CCCCCCCCCOCCOCCOCCOCCOCCOCCOCCO [A10-13]

24 h separation, amount [1, 6]: NS | 24 h separation, amount [1, 10]: NS | 1 h separation, amount [2, 7]: 4.4 mL | 1 h separation, appearance [2, 7]: C | 24 h separation, amount [2, 7]: 8.5 mL | 24 h separation, appearance [2, 7]: C | Spon. (spontaneity) [2, 7]: P | 1 h separation, amount [2, 8]: 4.8 mL | 1 h separation, appearance [2, 8]: C | 24 h separation, amount [2, 8]: 7.6 mL | 24 h separation, appearance [2, 8]: C | Spon. (spontaneity) [2, 8]: P | 1 h separation, amount [2, 6]: NS | Spon. (spontaneity) [2, 6]: G | 1 h separation, amount [2, 9]: 5.5 mL | 1 h separation, appearance [2, 9]: CO | 24 h separation, amount [2, 9]: 5.4 mL | 24 h separation, appearance [2, 9]: O | Spon. (spontaneity) [2, 9]: F | 1 h separation, amount [2, 10]: 1 mL | 1 h separation, appearance [2, 10]: C | Spon. (spontaneity) [2, 10]: F | 1 h separation, amount [2, 11]: 2 mL | 1 h separation, appearance [2, 11]: C | 24 h separation, amount [2, 11]: 4.7 mL | 24 h separation, appearance [2, 11]: C | Spon. (spontaneity) [2, 11]: F | Paste phase region ([3]; in deionized water): 93-100 % Actives Level | 1 h separation, amount [5, 12]: 2.6 mL | 1 h separation, appearance [5, 12]: C | 24 h separation, amount [5, 12]: 5 mL | 24 h separation, appearance [5, 12]: C | Spon. (spontaneity) [5, 12]: P | 1 h separation, amount [5, 13]: 2.8 mL | 1 h separation, appearance [5, 13]: C | 24 h separation, amount [5, 13]: 3.9 mL | 24 h separation, appearance [5, 13]: C | Spon. (spontaneity) [5, 13]: P | 1 h separation, amount [5, 14]: 7 mL | 1 h separation, appearance [5, 14]: C | 24 h separation, amount [5, 14]: 7 mL | 24 h separation, appearance [5, 14]: C | Spon. (spontaneity) [5, 14]: P | 1 h separation, amount [5, 15]: 6 mL | 1 h separation, appearance [5, 15]: C | 24 h separation, amount [5, 15]: 4.8 mL | 24 h separation, appearance [5, 15]: CO | Spon. (spontaneity) [5, 15]: P | 1 h separation, amount [5, 16]: 1 mL | 1 h separation, appearance [5, 16]: C | 24 h separation, amount [5, 16]: 3.5 mL | 24 h separation, appearance [5, 16]: CO | Spon. (spontaneity) [5, 16]: P | 1 h separation, amount [5, 17]: 1.2 mL | 1 h separation, appearance [5, 17]: C | 24 h separation, amount [5, 17]: 2 mL | 24 h separation, appearance [5, 17]: CO | Spon. (spontaneity) [5, 17]: P
SMILES: C=CCCCCCCCCOCCOCCOCCOCCOCCOCCOCCOCCOCCOCCOCCOCCOCCOCCOCCO [A10-16]

24 h separation, amount [1, 6]: NS | 1 h separation, amount [2, 7]: 6 mL | 1 h separation, appearance [2, 7]: C | 24 h separation, amount [2, 7]: 10 mL | 24 h separation, appearance [2, 7]: C | Spon. (spontaneity) [2, 7]: F | 1 h separation, amount [2, 8]: 6.7 mL | 1 h separation, appearance [2, 8]: C | 24 h separation, amount [2, 8]: 8.2 mL | 24 h separation, appearance [2, 8]: C | Spon. (spontaneity) [2, 8]: F | 1 h separation, amount [2, 6]: NS | Spon. (spontaneity) [2, 6]: G | 1 h separation, amount [2, 9]: 10.2 mL | 1 h separation, appearance [2, 9]: C | 24 h separation, amount [2, 9]: 2 O, 3.5 CO | Spon. (spontaneity) [2, 9]: F | 1 h separation, amount [2, 10]: 2 mL | 1 h separation, appearance [2, 10]: C | 24 h separation, amount [2, 10]: 5.1 mL | 24 h separation, appearance [2, 10]: C | Spon. (spontaneity) [2, 10]: F | 1 h separation, amount [2, 11]: 2.7 mL | 1 h separation, appearance [2, 11]: C | 24 h separation, amount [2, 11]: 4.9 mL | 24 h separation, appearance [2, 11]: C | Spon. (spontaneity) [2, 11]: F | combined isotropic phases (clear and opaque), share of the total [3]: about 66% | Isotropic Clear phase region ([3]; in deionized water): 74-100 % Actives Level | Isotropic Opaque phase region ([3]; in deionized water): 0-40 % Actives Level | Lamellar phase region ([3]; in deionized water): 40-74 % Actives Level | 1 h separation, amount [5, 12]: 3.2 mL | 1 h separation, appearance [5, 12]: C | 24 h separation, amount [5, 12]: 5.5 mL | 24 h separation, appearance [5, 12]: C | Spon. (spontaneity) [5, 12]: P | 1 h separation, amount [5, 13]: 4.2 mL | 1 h separation, appearance [5, 13]: O | 24 h separation, amount [5, 13]: 0.8 O, 3.3 CO | Spon. (spontaneity) [5, 13]: P | 1 h separation, amount [5, 14]: 8.8 mL | 1 h separation, appearance [5, 14]: C | 24 h separation, amount [5, 14]: 6.8 mL | 24 h separation, appearance [5, 14]: C | Spon. (spontaneity) [5, 14]: P | 1 h separation, amount [5, 15]: 4.5 mL | 1 h separation, appearance [5, 15]: O | 24 h separation, amount [5, 15]: 4.9 mL | 24 h separation, appearance [5, 15]: O | Spon. (spontaneity) [5, 15]: P | 1 h separation, amount [5, 16]: 2.3 mL | 1 h separation, appearance [5, 16]: C | 24 h separation, amount [5, 16]: 3 mL | 24 h separation, appearance [5, 16]: GC | Spon. (spontaneity) [5, 16]: P | 1 h separation, amount [5, 17]: 2.6 mL | 1 h separation, appearance [5, 17]: C | 24 h separation, amount [5, 17]: 3.2 mL | 24 h separation, appearance [5, 17]: GC | Spon. (spontaneity) [5, 17]: P
SMILES: CCC=CCCCCCCCCOCCOCCOCCO (mixture of isomers) [A12-7]
